Data reported in paper PMC10272112 (Nature Communications, 2023).
Like-named read-outs stand apart in the source and are kept apart here. One block for each compound: values may come before it.

Target: T1, HDAC6 (Homo sapiens, UniProt Q9UBN7)
T1 sequence (Q9UBN7 1-1215): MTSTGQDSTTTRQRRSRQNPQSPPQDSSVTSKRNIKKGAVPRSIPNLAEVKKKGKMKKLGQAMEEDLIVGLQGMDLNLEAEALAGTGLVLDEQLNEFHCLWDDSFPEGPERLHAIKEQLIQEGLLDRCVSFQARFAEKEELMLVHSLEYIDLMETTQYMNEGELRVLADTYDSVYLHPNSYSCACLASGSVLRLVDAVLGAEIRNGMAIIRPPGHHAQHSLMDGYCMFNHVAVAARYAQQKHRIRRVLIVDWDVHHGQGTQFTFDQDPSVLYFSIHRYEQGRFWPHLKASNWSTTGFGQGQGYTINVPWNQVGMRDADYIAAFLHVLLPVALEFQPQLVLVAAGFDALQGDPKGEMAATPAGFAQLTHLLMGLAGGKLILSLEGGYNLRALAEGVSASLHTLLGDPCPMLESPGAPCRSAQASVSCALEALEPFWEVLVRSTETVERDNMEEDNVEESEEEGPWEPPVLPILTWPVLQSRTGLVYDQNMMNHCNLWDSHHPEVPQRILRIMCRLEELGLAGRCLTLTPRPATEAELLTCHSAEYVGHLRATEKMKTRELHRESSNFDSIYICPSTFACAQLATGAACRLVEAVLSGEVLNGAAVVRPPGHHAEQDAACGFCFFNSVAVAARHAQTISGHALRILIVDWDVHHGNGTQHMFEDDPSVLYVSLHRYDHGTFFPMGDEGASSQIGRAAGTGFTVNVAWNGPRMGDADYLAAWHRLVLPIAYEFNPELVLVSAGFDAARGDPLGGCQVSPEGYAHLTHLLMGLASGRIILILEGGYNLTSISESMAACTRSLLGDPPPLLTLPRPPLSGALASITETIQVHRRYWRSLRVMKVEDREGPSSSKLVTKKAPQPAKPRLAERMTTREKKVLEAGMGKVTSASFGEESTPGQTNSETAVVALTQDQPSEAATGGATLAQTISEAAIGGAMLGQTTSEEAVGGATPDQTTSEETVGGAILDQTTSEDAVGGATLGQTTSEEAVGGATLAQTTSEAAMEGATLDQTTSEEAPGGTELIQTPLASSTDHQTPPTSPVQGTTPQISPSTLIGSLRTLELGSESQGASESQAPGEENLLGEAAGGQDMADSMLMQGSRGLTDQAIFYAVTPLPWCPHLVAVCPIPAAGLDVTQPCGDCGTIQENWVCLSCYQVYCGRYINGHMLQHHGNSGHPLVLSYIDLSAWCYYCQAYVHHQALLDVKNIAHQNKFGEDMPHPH
Assay: Chemoproteomic competition pulldown assay
Format: binding
Design: endogenous in cells; host or cells: SW620, MV4-11, A549 lysates
Procedure: To identify proteins directly bound by lipoic acid, we employed a chemoproteomic competition assay. Briefly, (R/S)-LA was immobilized on sepharose beads via an amidation reaction to form an affinity matrix (abbreviated as iL; Fig. 1a). This affinity matrix can be incubated with cell lysate to pull down potential LA or LM target proteins and identify these targets via bottom-up proteomics. In a competition assay, free LA or LM were incubated with lysate at different concentrations before pulling down and quantifying target proteins. […] (Fig. 1b, see “Methods” for details). […] The lysate buffer used in this assay contains 1 mM DTT to mimic the intracellular reductive milieu and to reduce lipoic acid and LM. […] Additional competition assays performed in lung adenocarcinoma cell A549 lysate also identified HDAC1, HDAC2, and HDAC6 as targets (Supplementary Fig. 1b). Amongst the three cell lines tested, HDACs were the only confidently identified targets across the 1500–3000 proteins quantified in these assays. […] We validated the results by analogous pulldown competition assays using two other affinity matrices prepared via the immobilization of either the HDAC inhibitor Quisinostat (iQ) and an analog of the class IIa HDAC inhibitor Bürli’s 31[14] (iC)[12]. We have previously shown that these affinity matrices specifically bind to the active sites of HDACs and have used them for HDACi selectivity profiling. Indeed, binding of (R/S)-LA and (R/S)-LM to HDAC1, HDAC2, HDAC3, HDAC6, and, to a lesser extent, HDAC8 was confirmed in these assays (Supplementary Fig. 1c, d). No binding to class IIa HDACs or the recently discovered common HDAC inhibitor off-target MBLAC2 was observed (Supplementary Fig. 1e)[12]. […] This observation might reflect electrostatic repulsion between the HDAC10 active site gate-keeper glutamic acid residues[15],[16] and the terminal carboxylic acid of LA.
To assess the degree of protein depletion from lysates by the affinity matrix, a second pulldown (PDPD) with fresh beads was performed using the unbound protein fraction from the vehicle control flow through. The beads were washed (1 × 1 mL of lysis buffer without inhibitors and only 0.4% Igepal, 2 × 2 mL of lysis buffer without inhibitors and only 0.2% Igepal), and captured proteins were denatured with 8 M urea buffer, alkylated with 55 mM chloroacetamide and digested with Trypsin according to standard procedures. The resulting peptides were desalted on a C18 filter plate (Sep-Pak® tC18 µElution Plate, Waters), vacuum dried, and stored at −20 °C until LC–MSMS measurement.
For the competition assays, relative binding was calculated based on the protein intensity ratio to the DMSO control for every single inhibitor concentration. EC50 values were derived from a four-parameter log-logistic regression with variable slope (constrain: bottom > 0). The obtained EC50 values were multiplied with a protein-dependent correction factor (cf), resulting in the apparent Kd value (Kd^app). The correction factor is determined by calculating the ratio of the protein intensity of two consecutive pulldowns of the vehicle control sample[13]. Targets of the inhibitors were annotated manually according to published procedures[12],[46],[47]. […] Additionally, the number of unique peptides and MSMS counts per condition were taken into account. Positive target binding across several independent experiments performed with different cell lysates further substantiated our confidence for a true positive drug-target binding event.

[1] = iL, SW620, read-out: pKdapp (converted)
[2] = iQ, SW620, read-out: pKdapp (converted)
[3] = iQ, SW620 lysate, log10 M -3.52288
[4] = iQ, SW620 lysate, log10 M -4.52288
[5] = iQ, SW620 lysate, log10 M -5.52288
[6] = iQ, SW620 lysate, log10 M -6.52288

SMILES: O=C(O)CCCCC1CCSS1 (racemic) [(R/S)-LA, (R/S)-lipoic acid]
- Kd (iL, A549, read-out: pKdapp (converted)): 5.01 µM
- relative binding vs DMSO (iL, A549 lysate, log10 M -4): 0.05504
- relative binding vs DMSO (iL, A549 lysate, log10 M -4.52288): 0.1518
- relative binding vs DMSO (iL, A549 lysate, log10 M -5): 0.3845
- relative binding vs DMSO (iL, A549 lysate, log10 M -5.52288): 0.7285
- relative binding vs DMSO (iL, A549 lysate, log10 M -6): 0.9189
- relative binding vs DMSO (iL, A549 lysate, log10 M -6.52288): 1.088
- relative binding vs DMSO (iL, A549 lysate, log10 M -7.52288): 1.108
- relative binding vs DMSO (iL, A549 lysate, log10 M -8): 1.195
- relative binding vs DMSO (iL, A549 lysate, log10 M -8.52288): 0.9886
- Kd [1]: 10 µM
- relative binding vs DMSO (iL, SW620 lysate, log10 M -3.52288): 0.1052
- relative binding vs DMSO (iL, SW620 lysate, log10 M -4): 0.1618
- relative binding vs DMSO (iL, SW620 lysate, log10 M -4.52288): 0.8697
- relative binding vs DMSO (iL, SW620 lysate, log10 M -5): 1.623
- relative binding vs DMSO (iL, SW620 lysate, log10 M -5.52288): 0.9452
- relative binding vs DMSO (iL, SW620 lysate, log10 M -6): 1.514
- relative binding vs DMSO (iL, SW620 lysate, log10 M -6.52288): 0.6952
- relative binding vs DMSO (iL, SW620 lysate, log10 M -7): 1.008
- Kd [2]: 10 µM
- relative binding vs DMSO [3]: 0.2137
- relative binding vs DMSO (iQ, SW620 lysate, log10 M -4): 0.2383
- relative binding vs DMSO [4]: 0.4233
- relative binding vs DMSO (iQ, SW620 lysate, log10 M -5): 0.664
- relative binding vs DMSO [5]: 0.8619
- relative binding vs DMSO (iQ, SW620 lysate, log10 M -6): 0.8804
- relative binding vs DMSO [6]: 1.0379
- relative binding vs DMSO (iQ, SW620 lysate, log10 M -7): 0.9144

- relative binding vs DMSO (iL, MV4-11 lysate, log10 M -3.52288): 0.06003
- relative binding vs DMSO (iL, MV4-11 lysate, log10 M -4): 0.1375
- relative binding vs DMSO (iL, MV4-11 lysate, log10 M -4.52288): 0.3195
- relative binding vs DMSO (iL, MV4-11 lysate, log10 M -5): 0.763
- relative binding vs DMSO (iL, MV4-11 lysate, log10 M -5.52288): 0.7012
- relative binding vs DMSO (iL, MV4-11 lysate, log10 M -6): 0.776
- relative binding vs DMSO (iL, MV4-11 lysate, log10 M -6.52288): 0.9127
- relative binding vs DMSO (iL, MV4-11 lysate, log10 M -7): 0.9147
- Kd (iL, MV4-11 lysate, read-out: Kd app): 21 µM
- Kd (iL, MV411, read-out: pKdapp (converted)): 10 µM
- Kd [1]: 15.8 µM
- Kd [2]: 10 µM
- relative binding vs DMSO [3]: 0.1855
- relative binding vs DMSO (iQ, SW620 lysate, log10 M -4): 0.2172
- relative binding vs DMSO [4]: 0.4129
- relative binding vs DMSO (iQ, SW620 lysate, log10 M -5): 0.6644
- relative binding vs DMSO [5]: 0.9409
- relative binding vs DMSO (iQ, SW620 lysate, log10 M -6): 1.062
- relative binding vs DMSO [6]: 0.8866
- relative binding vs DMSO (iQ, SW620 lysate, log10 M -7): 0.9139
SMILES: NC(=O)CCCCC1CCSS1 (racemic) [(R/S)-LM, (R/S)-lipoamide]
